Here are results for 28 molecules from BindingDB's records for doi:10.7270/Q2DB806H (University of Pittsburgh, 2007).

A word on the IC50: it is the concentration needed to halve the response being measured. A low value points to greater potency.

The experiment has as its target T1, Dual specificity protein phosphatase 6 (Rattus norvegicus, UniProt Q64346).
T1 sequence (Q64346 whole entry): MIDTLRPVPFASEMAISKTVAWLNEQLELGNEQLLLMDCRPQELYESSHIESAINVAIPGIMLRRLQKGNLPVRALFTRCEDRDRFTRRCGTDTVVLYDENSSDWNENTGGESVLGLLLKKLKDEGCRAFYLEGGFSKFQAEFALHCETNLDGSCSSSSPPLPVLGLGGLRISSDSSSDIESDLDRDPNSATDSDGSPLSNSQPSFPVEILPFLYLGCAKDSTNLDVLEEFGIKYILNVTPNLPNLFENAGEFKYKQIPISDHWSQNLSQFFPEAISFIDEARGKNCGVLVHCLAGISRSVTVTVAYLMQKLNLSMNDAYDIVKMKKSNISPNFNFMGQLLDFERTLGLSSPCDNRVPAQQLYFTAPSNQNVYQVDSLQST
The experiment is described as follows: MKP-3 phosphatase inhibitors, dose response, biochemical, probe assessment (AID 673).
In turn, `O=C(Nc1ccc2nc(-c3ccco3)c(-c3ccco3)nc2c1)N1CCCCCC1` returned an IC50 above 50 µM.

In the case of `Cc1ccc2c(c1C)NC(C(=O)O)C1CC=CC21` (stereo not drawn), the IC50 is above 50 µM.

`O=C(O)C1Nc2c(O)cccc2C2C=CCC12` (stereo not drawn) displayed an IC50 above 50 µM.

The molecule `Cn1ncnc2c(=O)n(C)c(=O)nc1-2` yielded an IC50 of 0.433 µM.

The molecule `[O-]/[N+](=C\c1ccncc1)c1ccccc1` displayed an IC50 above 50 µM.

`COc1cccc2c(C)c(C(=O)O)[nH]c12`: the IC50 was above 50 µM.

As for `O=C1C=Cc2ccccc2C1=O` [1,2-dihydronaphthalene-1,2-dione], the IC50 is above 50 µM.

`CCn1nc(-c2ccccc2)nc2c(=O)n(C)c(=O)nc1-2` [1-Ethyl-6-methyl-3-phenyl-1H-pyrimido[5,4-e][1,2,4]triazine-5,7-dione]: it took 0.615 µM to reach half-maximal inhibition (IC50). This lies in the sub-micromolar range.

In turn, `[O-]/[N+](=C\c1ccc(OC(F)F)cc1)c1ccccc1` [1-[4-(difluoromethoxy)phenyl]-N-phenylmethanimine oxide] displayed an IC50 above 50 µM.

Regarding `CCn1nc(-c2cccs2)nc2c(=O)n(C)c(=O)nc1-2` [1-ethyl-6-methyl-3-thiophen-2-yl-pyrimido[5,4-e][1,2,4]triazine-5,7-dione], the IC50 is 0.629 µM. This counts as sub-micromolar.

`O=C1Cc2ccccc2C(=O)N1CCc1ccccc1` [2-(2-phenylethyl)-4H-isoquinoline-1,3-dione] showed an IC50 of 19.8 µM.

With `N#Cc1c(N)sc(=S)c2c1CCN(Cc1ccccc1)C2` [3-Amino-7-benzyl-1-thioxo-5,6,7,8-tetrahydro-1H-thiopyrano[3,4-c]pyridine-4-carbonitrile], the midpoint of inhibition, the IC50, lay at 2.74 µM.

Consider `Cc1ccccc1Nc1cc2ccccc2c(O)n1` [3-[(2-methylphenyl)amino]-2H-isoquinolin-1-one], for which 12.1 µM corresponded to half-maximal inhibition (IC50). Against the preceding molecule, the IC50 is about 4.4-fold higher.

Regarding `COc1ccc(Br)cc1C=c1sc2nc(-c3ccco3)nn2c1=O` [5-[(5-bromanyl-2-methoxy-phenyl)methylidene]-2-(furan-2-yl)-[1,3]thiazolo[3,2-b][1,2,4]triazol-6-one], the IC50 is above 50 µM.

Molecule `CC(=O)Nc1cc(OC(C)=O)c2nonc2c1OC(C)=O` [Acetic acid 7-acetoxy-5-acetylamino-benzo[1,2,5]oxadiazol-4-yl ester] registered an IC50 above 50 µM.

`CCOC(=O)C(C(=O)OCC)c1cc(Br)c2noc3c2c1C(=O)c1ccccc1-3` [MLS000038842] displayed an IC50 above 50 µM.

The molecule `Oc1nc(Nc2ccccc2)cc2ccccc12` [MLS000043701] gave an IC50 of 12.6 µM.

The molecule `O=C1C=Cc2ccccc2/C1=C/NC12CN3CCN(CN(C3)C1)C2` [MLS000071484] gave a half-maximal inhibitory concentration (IC50) above 50 µM.

The molecule `Cc1c(N=c2c(=O)c3ccccc3c2=O)c(=O)n(-c2ccccc2)n1C` [MLS000105950] yielded an IC50 of 19.8 µM.

In turn, `CCOc1ccc2noc3c2c1C(=O)c1ccccc1-3` [MLS000106837] gave an IC50 above 50 µM.

`COc1ccc2noc3c2c1C(=O)c1ccccc1-3` [MLS000106874] had an IC50 above 50 µM.

Molecule `c1ccc(CSc2nnc(-c3ccco3)c(-c3ccco3)n2)cc1` [MLS-0029114.0001] displayed an IC50 above 50 µM.

As to `Cc1ccc2c(c1)C1C=CCC1C(C(=O)O)N2` (stereo not drawn) [MLS-0067149.0001], the IC50 is above 50 µM.

Turning to `O=C(NC1(O)C(=O)c2ccccc2C1=O)c1ccccc1` [N-(2-hydroxy-1,3-dioxo-2-indenyl)benzamide], 48.7 µM corresponded to half-maximal inhibition (IC50).

The molecule `COc1cccc2c1NC(C(=O)O)C1CC=CC21` (stereo not drawn) [SMR000009698] came in with an IC50 above 50 µM.

As to `O=C(OC1CCCCC1)c1ccc2c(c1)C1C=CCC1C(C(=O)O)N2` (stereo not drawn) [SMR000019385], the IC50 was above 50 µM.

Consider `N#Cc1c(N2CCCC2)nc(N)c2c(N)nc(N3CCCC3)cc12` [SMR000061605], for which it took 3.71 µM to reach half-maximal inhibition (IC50).

`Nc1cccc2cnccc12` [isoquinolin-5-amine]: the IC50 is above 50 µM.
